From ChEMBL document CHEMBL4421719, “Modulation of k2p channels” (2016)
Active and inactive are the calls of the source. The calls are words filed in the database; no cut-off is given here.

How the values were obtained:
[1] = organism: Homo sapiens; assay: Selectivity index, ratio of IC50 for inhibition of Trk1p (unknown origin) expressed in SGY1528 yeast cells assessed as inhibition of cell growth by alamar blue dye based assay to IC50 for inhibition of K2P2.1 (unknown origin) expressed in SGY1528 yeast cells assessed as inhibition of cell growth by alamar blue dye based assay
[2] = biological target: Potassium channel subfamily K member 3 (Homo sapiens) (UniProt O14649); assay: Activation of K2P3.1 (unknown origin) expressed in Xenopus oocytes assessed as effect on channel currents at -80 mV holding potential by two-electrode voltage clamp assay relative to control; assay type: cell-based
[3] = biological target: T1, Potassium channel subfamily K member 2 (Homo sapiens) (UniProt O95069); assay: Activation of K2P2.1 (unknown origin) expressed in Xenopus oocytes assessed as effect on channel currents at 200 uM at -80 mV holding potential by two-electrode voltage clamp assay; assay type: cell-based
T1 sequence (whole entry): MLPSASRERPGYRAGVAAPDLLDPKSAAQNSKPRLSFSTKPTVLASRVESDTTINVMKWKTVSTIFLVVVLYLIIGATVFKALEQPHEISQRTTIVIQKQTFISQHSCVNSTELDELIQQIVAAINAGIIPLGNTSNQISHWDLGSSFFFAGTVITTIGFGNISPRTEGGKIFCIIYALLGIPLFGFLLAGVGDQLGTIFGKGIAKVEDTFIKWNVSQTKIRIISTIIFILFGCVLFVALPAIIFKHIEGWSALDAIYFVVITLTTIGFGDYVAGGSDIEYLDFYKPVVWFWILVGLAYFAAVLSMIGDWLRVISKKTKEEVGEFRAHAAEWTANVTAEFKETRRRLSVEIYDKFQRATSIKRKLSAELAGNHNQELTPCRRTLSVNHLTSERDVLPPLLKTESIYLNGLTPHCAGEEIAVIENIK

[4] = biological target: T1, Potassium channel subfamily K member 2 (Homo sapiens); assay: Activation of K2P2.1 (unknown origin) expressed in Xenopus oocytes assessed as effect on channel currents at 500 uM at -80 mV holding potential by two-electrode voltage clamp assay; assay type: cell-based
[5] = biological target: Potassium voltage-gated channel subfamily KQT member 2 (Homo sapiens) (UniProt O43526); assay: Activation of Kv7.2 (unknown origin) expressed in Xenopus oocytes assessed as effect on channel currents at -80 mV holding potential by two-electrode voltage clamp assay relative to control; assay type: cell-based
[6] = biological target: T1, Potassium channel subfamily K member 2 (Homo sapiens); assay: Inhibition of K2P2.1 (unknown origin) expressed in SGY1528 yeast cells assessed as inhibition of cell growth at 10 uM incubated for 24 hrs by alamar blue dye based assay relative to control
[7] = biological target: Potassium channel subfamily K member 3 (Homo sapiens) (UniProt O14649); assay: Activation of K2P3.1 (unknown origin) expressed in Xenopus oocytes assessed as effect on channel currents at -80 mV holding potential at 500 uM by two-electrode voltage clamp assay relative to control; assay type: cell-based
[8] = biological target: T1, Potassium channel subfamily K member 2 (Homo sapiens); assay: Reversible activation of K2P2.1 (unknown origin) expressed in Xenopus oocytes assessed as effect on channel currents at 100 uM at -80 mV holding potential by two-electrode voltage clamp assay relative to control; assay type: cell-based
[9] = biological target: Potassium voltage-gated channel subfamily KQT member 2 (Homo sapiens) (UniProt O43526); assay: Activation of Kv7.2 (unknown origin) expressed in Xenopus oocytes assessed as effect on channel currents at 100 uM at -80 mV holding potential by two-electrode voltage clamp assay relative to control; assay type: cell-based
[10] = biological target: Potassium voltage-gated channel subfamily KQT member 2 (Homo sapiens) (UniProt O43526); assay: Activation of Kv7.2 (unknown origin) expressed in Xenopus oocytes assessed as effect on channel currents at 500 uM at -80 mV holding potential by two-electrode voltage clamp assay relative to control; assay type: cell-based
[11] = biological target: T2, Potassium channel subfamily K member 10 (Homo sapiens) (UniProt P57789); assay: Activation of K2P10.1 (unknown origin) expressed in Xenopus oocytes assessed as effect on channel currents at 500 uM at -80 mV holding potential by two-electrode voltage clamp assay; assay type: cell-based
T2 sequence (whole entry): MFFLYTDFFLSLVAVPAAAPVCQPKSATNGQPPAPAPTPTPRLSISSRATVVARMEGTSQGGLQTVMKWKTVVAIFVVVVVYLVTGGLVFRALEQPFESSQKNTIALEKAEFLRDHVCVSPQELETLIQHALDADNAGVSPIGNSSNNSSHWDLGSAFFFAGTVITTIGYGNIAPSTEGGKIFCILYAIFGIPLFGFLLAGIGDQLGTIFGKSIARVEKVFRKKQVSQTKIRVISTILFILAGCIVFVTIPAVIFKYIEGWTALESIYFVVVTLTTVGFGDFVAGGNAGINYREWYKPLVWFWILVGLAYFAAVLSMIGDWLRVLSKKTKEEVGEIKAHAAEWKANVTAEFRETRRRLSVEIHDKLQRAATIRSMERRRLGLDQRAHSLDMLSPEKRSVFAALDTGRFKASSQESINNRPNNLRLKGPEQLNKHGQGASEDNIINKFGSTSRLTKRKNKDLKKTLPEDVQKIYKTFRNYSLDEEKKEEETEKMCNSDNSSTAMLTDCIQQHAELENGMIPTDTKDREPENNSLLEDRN

[12] = biological target: T1, Potassium channel subfamily K member 2 (Homo sapiens); assay: Activation of K2P2.1 (unknown origin) expressed in Xenopus oocytes assessed as effect on channel currents at -80 mV holding by two-electrode voltage clamp assay relative to control; assay type: cell-based
[13] = biological target: T1, Potassium channel subfamily K member 2 (Homo sapiens); assay: Activation of K2P2.1 (unknown origin) expressed in Xenopus oocytes assessed as effect on channel currents at +40 mV holding potential at 400 uM by two-electrode voltage clamp assay; assay type: cell-based
[14] = biological target: T3, Potassium channel subfamily K member 10 (Homo sapiens, UniProt P57789); assay: Activation of K2P10.1 (unknown origin) expressed in Xenopus oocytes assessed as effect on channel currents at -80 mV holding potential by two-electrode voltage clamp assay; assay type: cell-based
T3 sequence (P57789 whole entry): T2 sequence (whole entry)

[15] = biological target: T1, Potassium channel subfamily K member 2 (Homo sapiens); assay: Antagonist activity at K2P2.1 (unknown origin) expressed in Xenopus oocytes assessed as suppression of channel currents at 20 uM at -80 mV holding potential by two-electrode voltage clamp assay relative to control; assay type: cell-based
[16] = biological target: T1, Potassium channel subfamily K member 2 (Homo sapiens); assay: Inhibition of K2P2.1 (unknown origin) expressed in Xenopus oocytes assessed as effect on channel currents at -80 mV holding potential at 100 uM by two-electrode voltage clamp assay relative to control; assay type: cell-based
[17] = biological target: T1, Potassium channel subfamily K member 2 (Homo sapiens); assay: Activation of K2P2.1 (unknown origin) expressed in Xenopus oocytes assessed as effect on channel currents at +40 mV holding potential at 100 uM by two-electrode voltage clamp assay; assay type: cell-based
[18] = biological target: T4, Potassium channel subfamily K member 2 (Homo sapiens, UniProt O95069); assay: Inhibition of K2P2.1 (unknown origin) expressed in Xenopus oocytes assessed as effect on channel currents at -80 mV holding potential by two-electrode voltage clamp assay; assay type: cell-based
T4 sequence (O95069 whole entry): T1 sequence (whole entry)

Potassium voltage-gated channel subfamily KQT member 2 (Homo sapiens), sequence (O43526 whole entry): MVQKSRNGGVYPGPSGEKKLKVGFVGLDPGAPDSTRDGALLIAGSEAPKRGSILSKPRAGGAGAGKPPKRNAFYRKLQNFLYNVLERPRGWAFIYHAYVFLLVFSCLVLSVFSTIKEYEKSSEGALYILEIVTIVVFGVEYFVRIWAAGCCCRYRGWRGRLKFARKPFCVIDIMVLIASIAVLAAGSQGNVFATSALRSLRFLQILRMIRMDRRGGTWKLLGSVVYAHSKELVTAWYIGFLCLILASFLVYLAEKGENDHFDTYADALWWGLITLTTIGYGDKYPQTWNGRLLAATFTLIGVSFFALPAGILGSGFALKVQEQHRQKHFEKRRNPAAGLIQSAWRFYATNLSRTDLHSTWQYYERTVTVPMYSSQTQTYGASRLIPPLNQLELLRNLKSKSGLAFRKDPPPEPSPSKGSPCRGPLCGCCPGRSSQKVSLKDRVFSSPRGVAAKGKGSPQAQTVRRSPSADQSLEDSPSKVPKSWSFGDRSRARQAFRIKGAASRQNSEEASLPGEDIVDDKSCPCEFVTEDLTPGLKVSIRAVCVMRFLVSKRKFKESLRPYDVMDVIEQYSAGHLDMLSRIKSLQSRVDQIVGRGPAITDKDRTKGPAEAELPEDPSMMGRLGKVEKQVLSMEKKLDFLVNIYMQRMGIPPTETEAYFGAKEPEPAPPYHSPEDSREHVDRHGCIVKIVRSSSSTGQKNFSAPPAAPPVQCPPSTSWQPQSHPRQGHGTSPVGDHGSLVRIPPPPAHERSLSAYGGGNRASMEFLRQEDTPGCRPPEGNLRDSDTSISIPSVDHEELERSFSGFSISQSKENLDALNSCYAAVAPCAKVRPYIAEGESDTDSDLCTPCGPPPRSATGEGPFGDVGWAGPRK
Potassium channel subfamily K member 3 (Homo sapiens), sequence (O14649 whole entry, looked up): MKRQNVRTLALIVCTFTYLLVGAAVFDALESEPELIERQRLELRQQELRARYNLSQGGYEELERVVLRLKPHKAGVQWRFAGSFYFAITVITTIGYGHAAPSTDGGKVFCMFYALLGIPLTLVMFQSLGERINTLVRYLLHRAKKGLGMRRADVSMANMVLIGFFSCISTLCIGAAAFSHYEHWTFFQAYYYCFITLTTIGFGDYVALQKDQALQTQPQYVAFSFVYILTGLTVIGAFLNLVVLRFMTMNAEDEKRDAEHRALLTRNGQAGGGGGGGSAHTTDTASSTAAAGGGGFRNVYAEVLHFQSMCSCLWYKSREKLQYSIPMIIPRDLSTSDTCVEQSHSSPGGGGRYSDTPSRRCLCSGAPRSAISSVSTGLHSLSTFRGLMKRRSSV

SMILES | Ratio IC50 [1] | Activity [2] | Activity [3] | Activity [4] | Activity [5] | growth inhibition (GI) [6] | Emax [7] | fold change (FC) [8] | Activity [9] | Emax [10] | Emax [11] | Emax [12] | Activity [13] | EC50 [14] | inhibition [15] | inhibition [16] | Activity [17] | IC50 [18]
O=C(O)CCn1c2ccc(Cl)cc2c2cc(Cl)ccc21 | < 2 | inactive | Active | Active | inactive | 66% | 1.2 | < 11 | inactive | 1.8 | 10.1 | 11 | Active | ≥ 250 µM |  |  |  | 
Cc1cccc(-n2ncc3c(NCCc4ccccc4)ncnc32)c1 | < 2 |  |  |  |  | 66% |  |  |  |  |  |  |  |  | 30% | 70% | Active | 21 µM
